Measurements reported in patent publication US20240246979A1, “cGAS INHIBITORS” (Eli Lilly and Company, priority 2022, published 2024).

Tests used:
cGAS [1] = molecular target: T1, cGAS (Homo sapiens, UniProt Q8N884); assay: Cellular assay to measure cGAS activity (IFNb AlphaLISA in THP1 cells stimulated by RDG-Adenovirus-GFP); format: cell-based; set-up: host or cells: THP1 cells differentiated with PMA and stimulated with RDG-Adenovirus-GFP; conditions: PMA-differentiated THP1 cells, RDG-Adenovirus-GFP at 1000 MOI; inhibition of IFNb production as marker for cGAS activity
T1 sequence (Q8N884 whole entry): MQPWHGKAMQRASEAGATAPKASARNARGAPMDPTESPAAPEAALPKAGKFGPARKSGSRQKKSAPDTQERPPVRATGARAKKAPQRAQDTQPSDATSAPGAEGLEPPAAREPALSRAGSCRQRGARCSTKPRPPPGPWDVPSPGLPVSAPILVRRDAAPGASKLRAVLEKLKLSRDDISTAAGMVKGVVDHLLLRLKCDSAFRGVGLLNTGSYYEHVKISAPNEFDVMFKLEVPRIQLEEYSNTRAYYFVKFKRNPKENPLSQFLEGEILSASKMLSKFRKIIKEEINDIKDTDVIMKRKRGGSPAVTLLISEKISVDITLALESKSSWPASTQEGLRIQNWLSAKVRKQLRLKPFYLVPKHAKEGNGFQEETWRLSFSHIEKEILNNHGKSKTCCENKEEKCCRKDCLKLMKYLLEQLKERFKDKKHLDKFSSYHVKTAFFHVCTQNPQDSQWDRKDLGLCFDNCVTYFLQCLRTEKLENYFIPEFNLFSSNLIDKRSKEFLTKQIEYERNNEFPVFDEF
Procedure: Cellular assay to measure cGAS activity: Use THP1 cell line from ATCC to determine inhibition of cGAS activity by test compounds in human cells. Plate cells on 96-well plates at 0.2×10^6/well and differentiate with phorbol myristate acetate (PMA) at 37° C./5% CO2. After 24 hours, replace PMA containing media with media lacking PMA and further incubate overnight. Stimulate cells were then by RDG-Adenovirus-GFP (Vector Biolabs #1768) at 1000 MOI for 4 hours prior to the addition of test compounds. After overnight incubation, transfer 10 μL of the media from each well to a new plate for IFNb analysis as a marker for cGAS activity. Measure quantification of IFNb with an IFNb AlphaLISA Detection kit (Perkin Elmer AL3133F) by mixing the acceptor beads with the cell supernatant followed by the addition of the biotinylated antibody and donor beads. Measure the relative fluorescence signal produced from the interaction of the donor and acceptor beads by a PHERAStar AlphaLISA protocol and evaluate the inhibitory effect of a compound by plotting specific inhibition of IFNb production against log concentration of the test compound. Calculate IC50 values using a 4-parameter non-linear logistic equation (y=(S0+((SInf−S0)/(1+((qAC50/x)^nHill))))).

cGAS [2] = molecular target: T1, cGAS; assay: In vitro inhibition assay of cGAS activity (cGAMP production, RapidFire mass spectrometry); format: biochemical; set-up: Insert cDNA encoding full-length of human cGAS; His6; made in house; host or cells: E. coli BL21(DE3); conditions: 10 nM recombinant human cGAS, 60 nM 75-bp dsDNA, 50 μM ATP, 50 μM GTP, 3 hrs
Procedure: Expression and Purification of Recombinant cGAS Protein: Insert cDNA encoding full-length of human cGAS into a modified bacterial expression vector containing an in-frame His6-tag. Induce the E. coli strain BL21(DE3) harboring the plasmid with 1 mM IPTG (Isopropyl β-D-1-thiogalactopyranoside) at 18° C. overnight. Purify the His6-tagged cGAS protein over HISpur Ni-NTA resin in the presence of benzonase and RNase followed by Superdex 200 size exclusion chromatography with storage buffer (50 mM Tris-HCl pH 7.5, 300 mM NaCl, 1 mM DTT, 10% glycerol).
In vitro inhibition assay of cGAS activity: Add a 5 μL mixture containing 10 mM Tris-Cl pH 7.5, 50 mM NaCl, 5 mM MgCl2, 1 mM DTT, 0.01% Triton X-100, 60 nM 75-bp dsDNA, 50 μM ATP, 50 μM GTP, 10 nM of recombinant human cGAS, and serial dilutions of a test compound in DMSO to a 384-well plate and incubate at ambient temperature for 3 hrs. Quench the reaction by the addition of 100 μL of stop solution containing 0.1% formic acid and 0.1 μM internal standard (3′3′-difluoro cGAMP). Measure the amount of cGAMP produced by RapidFire 365 mass spectrometry and evaluate inhibitory effect of a compound by plotting percent specific inhibition of cGAMP production against log concentration of the test compound. Calculate IC50 values using a 4-parameter non-linear logistic equation (y=(S0+((Sinf−S0)/(1+((qAC50/x)^nHill))))).

IC50 (cGAS [1])	IC50 (cGAS [2])	Structure (SMILES)
1030 nM	30.6 nM	Cc1conc1Nc1cc(Cl)c(Cl)c2[nH]c3c(c12)C(C)C(=O)NCC3 (centres unmarked) [Example 67, 7,8-Dichloro-1-methyl-10-((4-methylisoxazol-3-yl)amino)-3,4,5,6-tetrahydroazepino[4,5-b]indol-2(1H)-one]
180 nM	17.2 nM	Cn1c2c(c3c(CC#N)cc(Cl)c(Cl)c31)CC(=O)NCC2CCO (centres unmarked) [Example 121, 2-(7,8-Dichloro-5-(2-hydroxyethyl)-6-methyl-2-oxo-1,2,3,4,5,6-hexahydroazepino[4,5-b]indol-10-yl)acetonitrile]
6910 nM	88.4 nM	O=C1Cc2c([nH]c3c(Cl)c(Cl)cc(NC(=O)CO)c23)CCN1 [Example 24, N-(7,8-Dichloro-2-oxo-1,2,3,4,5,6-hexahydroazepino[4,5-b]indol-10-yl)-2-hydroxyacetamide]
1920 nM	46.5 nM	C[C@@H](O)CNc1cc(Cl)c(Cl)c2[nH]c3c(c12)[C@@H](C)C(=O)NCC3 (single isomer, unassigned) [Example 55]
577 nM	42.4 nM	CN(C)CCC1CNC(=O)Cc2c1[nH]c1c(Cl)c(Cl)cc(-c3cnn(C)n3)c21 (centres unmarked) [Example 118, 7,8-Dichloro-5-(2-(dimethylamino)ethyl)-10-(2-methyl-2H-1,2,3-triazol-4-yl)-3,4,5,6-tetrahydroazepino[4,5-b]indol-2(1H)-one]
558 nM	42.1 nM	CC1C(=O)NCCc2[nH]c3c(Cl)c(Cl)cc(NCc4cocn4)c3c21 (centres unmarked) [Example 57, 7,8-Dichloro-1-methyl-10-((oxazol-4-ylmethyl)amino)-3,4,5,6-tetrahydroazepino[4,5-b]indol-2(1H)-one]
4600 nM	109 nM	COCC[C@H]1CNC(=O)Cc2c1[nH]c1c(Cl)c(Cl)cc(-c3cnn(C)n3)c21 (single isomer, unassigned) [Example 168]
394 nM	12.4 nM	C[C@@H]1CNC(=O)[C@@H](C)c2c1[nH]c1c(Cl)c(Cl)cc(NCCO)c21 (single isomer, unassigned) [Example 154]
640 nM	14.8 nM	Cn1ncc(-c2cc(Cl)c(Cl)c3c2c2c4n3CCC4CNC(=O)C2)n1 (centres unmarked) [Example 116, 8,9-Dichloro-11-(2-methyl-2H-1,2,3-triazol-4-yl)-1,3,4,4a, 5,6-hexahydro-2H-azepino[3,4,5-gh]benzo[b]pyrrolizin-2-one]
3250 nM	38.8 nM	Cn1ncc(-c2cc(Cl)c(Cl)c3c2c2c(n3C)C(CC(C)(C)O)CNC(=O)C2)n1 (centres unmarked) [Example 105, 7,8-Dichloro-5-(2-hydroxy-2-methylpropyl)-6-methyl-10-(2-methyl-2H-1,2,3-triazol-4-yl)-3,4,5,6-tetrahydroazepino[4,5-b]indol-2(1H)-one]
473 nM	27.7 nM	COCC[C@@H]1CNC(=O)[C@H](C)c2c1[nH]c1c(Cl)c(Cl)cc(NCCO)c21 (racemic) [Example 170, cis 7,8-Dichloro-10-((2-hydroxyethyl)amino)-5-(2-methoxyethyl)-1-methyl-3,4,5,6-tetrahydroazepino[4,5-b]indol-2(1H)-one]
–	111 nM	Cn1ccc(-c2cc(Cl)c(Cl)c3[nH]c4c(c23)CC(=O)NCC4)n1 [Example 3, 7,8-Dichloro-10-(1-methyl-1H-pyrazol-3-yl)-3,4,5,6-tetrahydroazepino[4,5-b]indol-2(1H)-one]

The next lines start with the molecule.

Structure (SMILES)	IC50 (cGAS [1])	IC50 (cGAS [2])
C[C@@H]1CNC(=O)Cc2c1[nH]c1c(Cl)c(Cl)cc(OCC#N)c21 (single isomer, unassigned) [Example 148]	1390 nM	41.4 nM
C[C@H](O)C(=O)Nc1cc(Cl)c(Cl)c2c1c1c(n2C(F)F)CCNC(=O)[C@H]1C (single isomer, unassigned) [Example 142]	293 nM	29.6 nM
C[C@H]1C(=O)NCCc2[nH]c3c(Cl)c(Cl)cc(NCC(F)(F)CO)c3c21 (single isomer, unassigned) [Example 69, (R)-7,8-Dichloro-10-((2,2-difluoro-3-hydroxypropyl)amino)-1-methyl-3,4,5,6-tetrahydroazepino[4,5-b]indol-2(1H)-one or (S)-7,8-Dichloro-10-((2,2-difluoro-3-hydroxypropyl)amino)-1-methyl-3,4,5,6-tetrahydroazepino[4,5-b]indol-2(1H)-one]	> 10000 nM	630 nM
CC1C(=O)NCCc2[nH]c3c(Cl)c(Cl)cc(NCCC(F)F)c3c21 (centres unmarked) [Example 71, 7,8-Dichloro-10-((3,3-difluoropropyl)amino)-1-methyl-3,4,5,6-tetrahydroazepino[4,5-b]indol-2(1H)-one]	2320 nM	43 nM
COCCOc1cc(Cl)c(Cl)c2[nH]c3c(c12)[C@H](C)C(=O)NCC3(C)C (single isomer, unassigned) [Example 185, (S)-7,8-Dichloro-10-(2-methoxyethoxy)-1,5,5-trimethyl-3,4,5,6-tetrahydroazepino[4,5-b]indol-2(1H)-one or (R)-7,8-Dichloro-10-(2-methoxyethoxy)-1,5,5-trimethyl-3,4,5,6-tetrahydroazepino[4,5-b]indol-2(1H)-one]	> 10000 nM	1890 nM
COCCNc1cc(Cl)c(Cl)c2[nH]c3c(c12)[C@@H](C)C(=O)NCC3 (single isomer, unassigned) [Example 48]	> 10000 nM	6490 nM
C[C@H](O)C(=O)Nc1cc(Cl)c(Cl)c2c1c1c(n2C(F)F)CCNC(=O)[C@H]1C (single isomer, unassigned) [Example 143]	> 10000 nM	1510 nM
CC(C)(O)C[C@@H]1CNC(=O)Cc2c1[nH]c1c(Cl)c(Cl)cc(CC#N)c21 (single isomer, unassigned) [Example 106]	861 nM	188 nM
C[C@@H]1C(=O)NCCc2[nH]c3c(Cl)c(Cl)cc(OCC#N)c3c21 (single isomer, unassigned) [Example 16B]	1010 nM	998 nM
C[C@@H]1CNC(=O)[C@@H](C)c2c1[nH]c1c(Cl)c(Cl)cc(CC#N)c21 (single isomer, unassigned) [Example 153]	> 10000 nM	2420 nM
Cn1c2c(c3c(OCC#N)cc(Cl)c(Cl)c31)CC(=O)NCC2 [Example 21, 2-((7,8-Dichloro-6-methyl-2-oxo-1,2,3,4,5,6-hexahydroazepino[4,5-b]indol-10-yl)oxy)acetonitrile]	–	141 nM
C[C@H](O)C(=O)Nc1cc(Cl)c(Cl)c2c1c1c(n2C)CCNC(=O)[C@H]1C (single isomer, unassigned) [Example 94]	663 nM	24.7 nM
Cn1c2c(c3c(OCC#N)cc(Cl)c(Cl)c31)CC(=O)NC[C@H]2CC(C)(C)O (single isomer, unassigned) [Example 110, (R)-2-((7,8-Dichloro-5-(2-hydroxy-2-methylpropyl)-6-methyl-2-oxo-1,2,3,4,5,6-hexahydroazepino[4,5-b]indol-10-yl)oxy)acetonitrile or (S)-2-((7,8-Dichloro-5-(2-hydroxy-2-methylpropyl)-6-methyl-2-oxo-1,2,3,4,5,6-hexahydroazepino[4,5-b]indol-10-yl)oxy)acetonitrile]	3120 nM	2610 nM
C[C@@H]1C(=O)NCCc2[nH]c3c(Cl)c(Cl)cc(NC(=O)CO)c3c21 (single isomer, unassigned) [Example 12A]	356 nM	16.3 nM
